Assay results reported in the supplement of paper PMC11997997.

Legend:
[1] = tested on: murine bone marrow-derived macrophages; assay: area under cytotoxicity dose-response curve (AUC (% cytotoxicity x dose, relative)); higher = more cytotoxic; details: duration: 6 days; dose range: 0.13-80 uM, 8 points
Procedure, shortened: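 Cytotoxicity is expressed as the area under the dose–response curve from GraphPad Prism version 10. To obtain it, primary murine bone marrow-derived macrophages were incubated for 6 days at 37 °C in 5% CO2 across final concentrations of 80–0.13 μM. Viability came from CellTiter-Glo luminescence, and percent cytotoxicity was normalised to vehicle and positive control wells.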

[2] = tested on: Mycobacterium tuberculosis CDC1551 (intracellular, in murine BMDM); assay: area under intracellular growth-inhibition dose-response curve (AUC (% inhibition x dose, relative)); higher = more potent; details: duration: 6 days; dose range: 0.13-80 uM, 8 points
Procedure, shortened: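 In 384-well opaque plates, primary murine bone marrow-derived macrophages were infected with luciferase-expressing M. tuberculosis CDC1551 (multiplicity of infection 1, 1 h) 24 h after seeding, then treated for 6 days across final concentrations of 80–0.13 μM. Growth was measured by Bright-Glo luciferin assay, normalised to a reference drug control and the lowest-concentration wells. The reported value is the area under the growth-inhibition dose–response curve from GraphPad Prism.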

For `CCC(=O)NC(=S)Nc1ccc(NC(=O)c2ccc(Br)o2)cc1`, the “area under cytotoxicity dose-response curve” value [1] was 58.2 and the “area under intracellular growth-inhibition dose-response curve” value [2] was 211.
`CCn1cc(CNC(=O)c2cc([N+](=O)[O-])c(C)c([N+](=O)[O-])c2)cn1` was tested, and the “area under cytotoxicity dose-response curve” value [1] was 16.8 and the “area under intracellular growth-inhibition dose-response curve” value [2] was 226.
`Cc1cc(Br)cnc1NC(=S)Nc1ccc(F)cc1F` was tested, and the “area under cytotoxicity dose-response curve” value [1] was 33.7 and the “area under intracellular growth-inhibition dose-response curve” value [2] was 247.
`NC(=S)N/N=C/c1ccc(C(F)(F)F)cc1` was tested, and the “area under cytotoxicity dose-response curve” value [1] was 19.4 and the “area under intracellular growth-inhibition dose-response curve” value [2] was 260.
In the case of `C/C(=N\NC(N)=S)c1ccccc1`, the “area under cytotoxicity dose-response curve” value [1] is reported as 45.3 and the “area under intracellular growth-inhibition dose-response curve” value [2] is reported as 219.
With `Cc1ccc(C)c(N2CCN(CCCNC(=O)Cn3cccc3C(=O)c3ccccc3C)CC2)c1` the “area under cytotoxicity dose-response curve” value [1] was 3.91 and the “area under intracellular growth-inhibition dose-response curve” value [2] was 84.4.
For `COc1ccc(CCNC(=O)c2cc([N+](=O)[O-])cc([N+](=O)[O-])c2)cc1OC`, the “area under cytotoxicity dose-response curve” value [1] was less than 0 and the “area under intracellular growth-inhibition dose-response curve” value [2] was 243.
For `O=C(Nc1ccc(NC(=S)NC(=O)c2ccccc2F)cc1)c1cccs1`, the “area under cytotoxicity dose-response curve” value [1] was 13.8 and the “area under intracellular growth-inhibition dose-response curve” value [2] was 268.
For `O=C(NCCN1CCOCC1)c1cc([N+](=O)[O-])cc([N+](=O)[O-])c1`, the “area under cytotoxicity dose-response curve” value [1] was 8.42 and the “area under intracellular growth-inhibition dose-response curve” value [2] was 168.
`CC[C@@H](C)[C@@H]1CN([C@@H](C)CN2CCC[C@H]2CN2C(N)=NC[C@@H]2Cc2ccccc2)C(=N)N1CCc1ccc(Cl)c(Cl)c1` was tested, and the “area under cytotoxicity dose-response curve” value [1] was less than 0 and the “area under intracellular growth-inhibition dose-response curve” value [2] was 167.
For `O=C(NCC(c1cccs1)N1CCOCC1)c1cc([N+](=O)[O-])cc([N+](=O)[O-])c1` (centres undefined), the “area under cytotoxicity dose-response curve” value [1] was 20.1 and the “area under intracellular growth-inhibition dose-response curve” value [2] was 276.
For `O=C(COC(=O)C1CC2CCCC(C1)C2=O)Nc1ccc(F)c(Cl)c1` (centres undefined), the “area under cytotoxicity dose-response curve” value [1] was 44.5 and the “area under intracellular growth-inhibition dose-response curve” value [2] was 90.3.
With `Cc1nc(SCc2cccc(F)c2)c2oc3ccccc3c2n1` the “area under cytotoxicity dose-response curve” value [1] was less than 0 and the “area under intracellular growth-inhibition dose-response curve” value [2] was 186.
With `CC(=O)N1CCN(c2ccc(NC(=O)c3ccc([N+](=O)[O-])o3)cc2Cl)CC1` the “area under cytotoxicity dose-response curve” value [1] was 88.8 and the “area under intracellular growth-inhibition dose-response curve” value [2] was 49.4.
For `O=C(NCc1ccncc1)c1cccc(S(=O)(=O)N2CCc3ccccc32)c1`, the “area under cytotoxicity dose-response curve” value [1] was 39.9 and the “area under intracellular growth-inhibition dose-response curve” value [2] was less than 0.
For `O=C(NCC1CC1)c1cc([N+](=O)[O-])cc([N+](=O)[O-])c1`, the “area under cytotoxicity dose-response curve” value [1] was 36.7 and the “area under intracellular growth-inhibition dose-response curve” value [2] was 202.
For `COc1cc(/C=N/NC(=O)c2ccncc2)ccc1Oc1ccc([N+](=O)[O-])cn1`, the “area under cytotoxicity dose-response curve” value [1] was 71.3 and the “area under intracellular growth-inhibition dose-response curve” value [2] was 194.
For `Cn1ccc(=Nc2ccc(NC(=O)c3ccc(/N=c4\ccn(C)c5ccc([N+](=O)[O-])cc45)cc3)cc2)cc1`, the “area under cytotoxicity dose-response curve” value [1] was 108 and the “area under intracellular growth-inhibition dose-response curve” value [2] was 260.
`C/C(=N/NC(N)=S)c1ccc(Br)s1` was tested, and the “area under cytotoxicity dose-response curve” value [1] was less than 0 and the “area under intracellular growth-inhibition dose-response curve” value [2] was 268.
`COC(=O)c1cccc(/C=N/NC(N)=S)c1O` was tested, and the “area under cytotoxicity dose-response curve” value [1] was 32.1 and the “area under intracellular growth-inhibition dose-response curve” value [2] was 144.
In the case of `NC1=NC[C@@H](CC2CCCCC2)N1CCc1cc(C(F)(F)F)cc(C(F)(F)F)c1`, the “area under cytotoxicity dose-response curve” value [1] is reported as 109 and the “area under intracellular growth-inhibition dose-response curve” value [2] is reported as 52.6.
In the case of `Cc1ccnc2c1ccc1c(C)ccnc12.O`, the “area under cytotoxicity dose-response curve” value [1] is reported as 38.9 and the “area under intracellular growth-inhibition dose-response curve” value [2] is reported as 199.
